Experimental data taken from US11964974B1, “Imidazo[1,2-c]pyrido[3,4-e]pyrimidine-3-carboxylic acids as CK2 inhibitors” (KING FAISAL UNIVERSITY, priority 2024, dated 2024).

Assays:
PC3 (prostate) = assay: In vitro cytotoxic activity assay (MTT), PC3; format: cell-based; settings: Homo sapiens, Prostate cell; PC3 (prostate) cells, exposed for 96 hours; read-out: Cytotoxicity activity IC50
Method: (§1) Compounds 1-16 were screened for their in vitro cytotoxic activity utilizing a 3-(4,5-dimethyl-thiazol-2-yl)-2,5-diphenyltetrazolium bromide (MTT) assay against selected cancer human cell lines consisting of PC3 (prostate), HCT116 (colon), A375 (melanoma), H1299 (lung), MIAPaCa-2 (pancreas), HL60 (leukemia), MCF7 (breast), MDA-MB-231 (breast) (T. Mosmann, J. Immunol. Meth., 1983, 65, 55-63). The cells were cultured at 37° C. in RMPI1640 medium supplemented with 10% fetal bovine serum, 50 IU/mL penicillin, and 50 μg/mL streptomycin in a 5% CO2 incubator. All cells were sub-cultured 3 times/week by trypsinisation. Viable cells were seeded and allowed to adhere for 12 hours before a test drug was added in 96-well plates at an initial density of 1.0×10^5 cells/mL. Tumor cell lines were separately exposed to various concentrations of the tested compounds followed by incubation at a temperature of 37° C. during 96 hours inside a medium of fresh RMPI 1640. Cells were subsequently incubated at 37° C. using MTT at 0.5 mg/mL during 4 hours. After removal of supernatant, formazan crystals were dissolved in isopropanol and the optical density was measured at 570 nm. CX-4945 was used as a positive control.

H1299 (lung) = assay: In vitro cytotoxic activity assay (MTT), H1299; format: cell-based; settings: Homo sapiens, NCI-H1299; H1299 (lung) cells, exposed for 96 hours; read-out: Cytotoxicity activity IC50
Method: as §1

MIAPaCa-2 (pancreas) = assay: In vitro cytotoxic activity assay (MTT), MIAPaCa-2; format: cell-based; settings: Homo sapiens, MIA PaCa-2; MIAPaCa-2 (pancreas) cells, exposed for 96 hours; read-out: Cytotoxicity activity IC50
Method: as §1

A375 (melanoma) = assay: In vitro cytotoxic activity assay (MTT), A375; format: cell-based; settings: Homo sapiens, A-375; A375 (melanoma) cells, exposed for 96 hours; read-out: Cytotoxicity activity IC50
Method: as §1

MCF7 (breast) = assay: In vitro cytotoxic activity assay (MTT), MCF7; format: cell-based; settings: Homo sapiens; MCF7 (breast) cells, exposed for 96 hours; read-out: Cytotoxicity activity IC50
Method: as §1

[1] = biological target: T1, recombinant human CK2 (RRββ-holoenzyme) (Homo sapiens, UniProt P68400); assay: CK2 Kinase Assay (radiometric, [γ-33P]ATP); format: biochemical; settings: final ATP concentration 15 μM, 10 min at 30° C.; read-out: protein kinase CK2 inhibition IC50
T1 construct: purchased Millipore
T1 sequence (P68400 whole entry): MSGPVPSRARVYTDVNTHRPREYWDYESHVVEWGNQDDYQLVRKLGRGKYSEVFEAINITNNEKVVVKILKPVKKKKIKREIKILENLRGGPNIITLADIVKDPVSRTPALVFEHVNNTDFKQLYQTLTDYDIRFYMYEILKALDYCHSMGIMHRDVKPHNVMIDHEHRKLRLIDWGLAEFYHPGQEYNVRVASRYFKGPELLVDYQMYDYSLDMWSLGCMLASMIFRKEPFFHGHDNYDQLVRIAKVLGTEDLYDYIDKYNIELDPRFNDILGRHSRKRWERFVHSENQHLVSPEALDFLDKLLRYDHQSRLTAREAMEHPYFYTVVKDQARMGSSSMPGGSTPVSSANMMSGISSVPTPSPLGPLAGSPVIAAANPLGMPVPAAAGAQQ
T1 sequence (P67870 whole entry partner): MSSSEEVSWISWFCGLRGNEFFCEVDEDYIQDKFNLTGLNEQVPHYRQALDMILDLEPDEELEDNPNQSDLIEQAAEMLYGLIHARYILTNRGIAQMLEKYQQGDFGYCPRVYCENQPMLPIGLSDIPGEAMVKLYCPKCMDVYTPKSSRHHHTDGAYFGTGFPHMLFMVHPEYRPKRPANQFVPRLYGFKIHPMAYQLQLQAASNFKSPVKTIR
Method: CK2 Kinase Assay was conducted using the protocol as described in Pierre F. et al; J. Med. Chem. 2011, 54, 635-654. The tested compounds in aqueous solution were added at a volume of 10 μL to a reaction mixture comprising 10 μL of assay dilution buffer (ADB; 20 mM MOPS, pH 7.2, 25 mM β-glycerol phosphate, 5 mM EGTA, 1 mM sodium orthovanadate, and 1 mM dithiothreitol), 10 μL of substrate peptide (RRRDDDSDDD, dissolved in ADB at a concentration of 1 mM), 10 μL of recombinant human CK2 (RRββ-holoenzyme, 25 ng dissolved in ADB; Millipore). Reactions were initiated by the addition of 10 μL of ATP solution (90% 75 mMMgCl2, 75 μM ATP (final ATP concentration: 15 μM) dissolved in ADB; 10% [γ-33P] ATP (stock 1 mCi/100 μL; 3000 Ci/mmol (Perkin-Elmer) and maintained for 10 min at 30° C. The reactions were quenched with 100 μL of 0.75% phosphoric acid and then transferred to and filtered through a phosphor cellulose filter plate (Millipore). After washing each well five times with 0.75% phosphoric acid, the plate was dried under vacuum for 5 min and, following the addition of 15 μL of scintillation fluid to each well, the residual radioactivity was measured using a Wallac luminescence counter. The IC50 values were derived from eight concentrations of test inhibitors.

MDA-MB-231 (breast) = assay: In vitro cytotoxic activity assay (MTT), MDA-MB-231; format: cell-based; settings: Homo sapiens; MDA-MB-231 (breast) cells, exposed for 96 hours; read-out: Cytotoxicity activity IC50
Method: as §1

HL60 (leukemia) = assay: In vitro cytotoxic activity assay (MTT), HL60; format: cell-based; settings: Homo sapiens, HL-60; HL60 (leukemia) cells, exposed for 96 hours; read-out: Cytotoxicity activity IC50
Method: as §1

HCT116 (colon) = assay: In vitro cytotoxic activity assay (MTT), HCT116; format: cell-based; settings: Homo sapiens, HCT-116; HCT116 (colon) cells, exposed for 96 hours; read-out: Cytotoxicity activity IC50
Method: as §1

`O=C(O)c1cnc2c3cnccc3nc(Nc3cccc(Cl)c3)n12` [Compound 1, 5-((3-chlorophenyl)amino)imidazo[1,2-c]pyrido[3,4-e]pyrimidine-3-carboxylic acid] gave an IC50 (PC3 (prostate)) of 1.8 µM, an IC50 (H1299 (lung)) of 2.9 µM and an IC50 (MIAPaCa-2 (pancreas)) of 1.6 µM. For the same molecule, the IC50 (A375 (melanoma)) was 5.6 µM, the IC50 (MCF7 (breast)) was 5.3 µM and the IC50 [1] was 0.035 µM. It also gave an IC50 (MDA-MB-231 (breast)) of 4.9 µM, an IC50 (HL60 (leukemia)) of 6.7 µM and an IC50 (HCT116 (colon)) of 3.2 µM.
